PubChem BioAssay AID248 (DTP/NCI, 2004)
Inconclusive results and toxic doses are left out. Cut-off read from the data, not from the text of the source: active = T/C of 150% or more; inactive = T/C below 125%.

Tested on: L1210 leukemia ip in BDF1 mice, survival T/C
Assay: NCI In Vivo Anticancer Drug Screen. Data for tumor model L1210 Leukemia (intraperitoneal) in B6D2F1 (BDF1) mice
Settings: endpoint: mean survival time, higher = longer survival
How it was run: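 Ratio derived from survival: compound-dosed mice over vehicle-dosed mice, all bearing a transplantable tumor.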

[1] = dose: 100.0 mg/kg/injection, schedule: Q01DX009 (ip), vehicle: Klucel (hydroxypropylcellulose) (HPC)
[2] = dose: 100.0 mg/kg/injection, schedule: Q04DX002 (ip), vehicle: Klucel (hydroxypropylcellulose) (HPC)
[3] = dose: 200.0 mg/kg/injection, schedule: Q01DX009 (ip), vehicle: Klucel (hydroxypropylcellulose) (HPC)
[4] = dose: 200.0 mg/kg/injection, schedule: Q04DX002 (ip), vehicle: Klucel (hydroxypropylcellulose) (HPC)
[5] = dose: 400.0 mg/kg/injection, schedule: Q01DX009 (ip), vehicle: Klucel (hydroxypropylcellulose) (HPC)
[6] = dose: 400.0 mg/kg/injection, schedule: Q04DX002 (ip), vehicle: Klucel (hydroxypropylcellulose) (HPC)
[7] = dose: 100.0 mg/kg/injection, schedule: Q01DX001 (ip), vehicle: saline with Tween-80
[8] = dose: 100.0 mg/kg/injection, schedule: Q01DX009 (ip), vehicle: saline with Tween-80
[9] = dose: 100.0 mg/kg/injection, schedule: Q04DX003 (ip), vehicle: saline with Tween-80
[10] = dose: 200.0 mg/kg/injection, schedule: Q01DX001 (ip), vehicle: saline with Tween-80
[11] = dose: 200.0 mg/kg/injection, schedule: Q01DX009 (ip), vehicle: saline with Tween-80
[12] = dose: 200.0 mg/kg/injection, schedule: Q04DX003 (ip), vehicle: saline with Tween-80
[13] = dose: 400.0 mg/kg/injection, schedule: Q01DX001 (ip), vehicle: saline with Tween-80
[14] = dose: 400.0 mg/kg/injection, schedule: Q01DX009 (ip), vehicle: saline with Tween-80
[15] = dose: 400.0 mg/kg/injection, schedule: Q04DX003 (ip), vehicle: saline with Tween-80
[16] = dose: 100.0 mg/kg/injection, schedule: Q01DX001 (ip), vehicle: carboxymethylcellulose (CMC)
[17] = dose: 200.0 mg/kg/injection, schedule: Q01DX001 (ip), vehicle: carboxymethylcellulose (CMC)
[18] = dose: 100.0 mg/kg/injection, schedule: Q04DX003 (ip), vehicle: Klucel (hydroxypropylcellulose) (HPC)
[19] = dose: 100.0 mg/kg/injection, schedule: Q01DX001 (ip), vehicle: saline
[20] = dose: 200.0 mg/kg/injection, schedule: Q01DX001 (ip), vehicle: saline
[21] = dose: 400.0 mg/kg/injection, schedule: Q01DX001 (ip), vehicle: saline

Measured: T/C

Cc1ccc(NC(=O)Oc2ccccc2C(=O)OCc2ccccc2)cc1
inactive: [1] 101 % of control | [2] 88 % of control | [3] 106 % of control | [4] 88 % of control | [5] 101 % of control | [6] 107 % of control

O=C1Nc2ccccc2C1=Nc1ccc(S(=O)(=O)Nc2nccs2)cc1
inactive: dose: 75.0 mg/kg/injection, schedule: Q01DX001 (ip), vehicle: saline 89 % of control | dose: 150.0 mg/kg/injection, schedule: Q01DX001 (ip), vehicle: saline 86 % of control | dose: 300.0 mg/kg/injection, schedule: Q01DX001 (ip), vehicle: saline 86 % of control

Cc1cc(C)c(-n2c(C)cc(C(=O)O)c2C)c(C)c1C(=O)O
inactive: dose: 100.0 mg/kg/injection, schedule: Q01DX001 (ip), vehicle: alcohol 102 % of control | dose: 200.0 mg/kg/injection, schedule: Q01DX001 (ip), vehicle: alcohol 96 % of control | dose: 400.0 mg/kg/injection, schedule: Q01DX001 (ip), vehicle: alcohol 97 % of control

CCCCCCCCCCCCCCCC(=O)N(CCC#N)c1ccc(N(CCC#N)C(=O)CCCCCCCCCCCCCCC)cc1
inactive: [7] 93 % of control | [8] 86 % of control | [9] 104 % of control | [10] 98 % of control | [11] 88 % of control | [12] 94 % of control | [13] 94 % of control | [14] 86 % of control | [15] 93 % of control

O=C(OC1CC2CC1C1CCCCC21)c1ccc([N+](=O)[O-])cc1 (centres undefined)
inactive: dose: 50.0 mg/kg/injection, schedule: Q01DX001 (ip), vehicle: carboxymethylcellulose (CMC) 94 % of control | [16] 105 % of control | [17] 100 % of control | dose: 400.0 mg/kg/injection, schedule: Q01DX001 (ip), vehicle: carboxymethylcellulose (CMC) 96 % of control

CCOC(C)C1C2CCCCC21 (centres undefined)
inactive: [8] 101 % of control | [11] 92 % of control

Cc1nc(N)c(=O)[nH]c1C
inactive: dose: 100.0 mg/kg/injection, schedule: Q01DX001 (ip), vehicle: Klucel (hydroxypropylcellulose) (HPC) 104 % of control | [8] 90 % of control | [9] 100 % of control | dose: 200.0 mg/kg/injection, schedule: Q01DX001 (ip), vehicle: Klucel (hydroxypropylcellulose) (HPC) 97 % of control | [11] 112 % of control | [12] 105 % of control | dose: 400.0 mg/kg/injection, schedule: Q01DX001 (ip), vehicle: Klucel (hydroxypropylcellulose) (HPC) 97 % of control | [14] 104 % of control | [15] 114 % of control

C=CCC(CCCCCCCCCCC)C(=O)O (centres undefined)
inactive: [7] 111 % of control | [10] 97 % of control | [13] 90 % of control

CCC(C)(C)c1ccc(O)c(C(=O)O)c1
inactive: [16] 90 % of control | [17] 95 % of control

CC(O)C(=O)SCc1ccccc1 (centres undefined)
inactive: dose: 100.0 mg/kg/injection, schedule: Q04DX002 (ip), vehicle: saline with Tween-80 95 % of control | dose: 200.0 mg/kg/injection, schedule: Q04DX002 (ip), vehicle: saline with Tween-80 98 % of control | dose: 400.0 mg/kg/injection, schedule: Q04DX002 (ip), vehicle: saline with Tween-80 92 % of control

CCC(CCC(C)C1CCC2C3CC=C4CC(OC(=O)CCC(=O)O)CCC4(C)C3CCC12C)C(C)C (centres undefined)
inactive: [8] 101 % of control | [11] 96 % of control | [14] 92 % of control

O=C(/C=C/c1ccccc1)Nc1cc(Cl)ccc1Cl
inactive: [1] 110 % of control | [18] 97 % of control | [3] 114 % of control | dose: 200.0 mg/kg/injection, schedule: Q04DX003 (ip), vehicle: Klucel (hydroxypropylcellulose) (HPC) 89 % of control | [5] 96 % of control | dose: 400.0 mg/kg/injection, schedule: Q04DX003 (ip), vehicle: Klucel (hydroxypropylcellulose) (HPC) 94 % of control

O=C1C=C(c2ccccc2)C(c2ccccc2)C1O (centres undefined)
inactive: dose: 75.0 mg/kg/injection, schedule: Q01DX001 (ip), vehicle: other 102 % of control | dose: 150.0 mg/kg/injection, schedule: Q01DX001 (ip), vehicle: other 97 % of control

CC(=O)C(C(c1ccccc1)N1CCOCC1)N1CCOCC1 (centres undefined)
inactive: [2] 100 % of control | [9] 97 % of control | [4] 110 % of control | [12] 96 % of control | [6] 100 % of control | [15] 93 % of control

Cc1ccc([N+](=O)[O-])cc1NC(=O)COc1ccc(Cl)cc1
inactive: [8] 91 % of control | [11] 89 % of control | [14] 89 % of control

Clc1cccc2ccc(-c3cc4ccccc4s3)nc12
inactive: dose: 50.0 mg/kg/injection, schedule: Q01DX001 (ip), vehicle: saline 102 % of control | [19] 101 % of control | [20] 101 % of control | [21] 106 % of control

O=C(Nc1ccc(O)cc1)Nc1cccc(C(F)(F)F)c1
inactive: dose: 100.0 mg/kg/injection, schedule: Q01DX009 (ip), vehicle: gum acacia 103 % of control | dose: 200.0 mg/kg/injection, schedule: Q01DX009 (ip), vehicle: gum acacia 106 % of control | dose: 400.0 mg/kg/injection, schedule: Q01DX009 (ip), vehicle: gum acacia 100 % of control

CC(=O)Nc1ccccc1C[P+](c1ccccc1)(c1ccccc1)c1ccccc1
inactive: dose: 25.0 mg/kg/injection, schedule: Q04DX003 (ip), vehicle: Klucel (hydroxypropylcellulose) (HPC) 97 % of control | dose: 50.0 mg/kg/injection, schedule: Q04DX003 (ip), vehicle: Klucel (hydroxypropylcellulose) (HPC) 98 % of control | [18] 100 % of control

C#CCOCC1CN(C)C(=O)O1 (centres undefined)
inactive: dose: 25.0 mg/kg/injection, schedule: Q01DX009 (ip), vehicle: saline 90 % of control | dose: 50.0 mg/kg/injection, schedule: Q01DX009 (ip), vehicle: saline 110 % of control | dose: 50.0 mg/kg/injection, schedule: Q04DX003 (ip), vehicle: saline 103 % of control | dose: 100.0 mg/kg/injection, schedule: Q01DX009 (ip), vehicle: saline 100 % of control | dose: 100.0 mg/kg/injection, schedule: Q04DX003 (ip), vehicle: saline 106 % of control | dose: 200.0 mg/kg/injection, schedule: Q01DX009 (ip), vehicle: saline 117 % of control | dose: 200.0 mg/kg/injection, schedule: Q04DX003 (ip), vehicle: saline 103 % of control | dose: 400.0 mg/kg/injection, schedule: Q01DX009 (ip), vehicle: saline 100 % of control | dose: 400.0 mg/kg/injection, schedule: Q04DX003 (ip), vehicle: saline 92 % of control

Cc1cnc(NC#N)nc1-c1ccccc1O
inactive: [2] 95 % of control | [4] 98 % of control | [6] 95 % of control

O=[N+]([O-])c1ccc(-c2ccc(Br)cc2)cc1
inactive: [8] 100 % of control | [9] 101 % of control | [11] 86 % of control | [12] 94 % of control | [15] 103 % of control

O=C(CC1CC2CCC1C2)Nc1ccccc1 (centres undefined)
inactive: [19] 96 % of control | [20] 111 % of control | [21] 100 % of control
